Assay results: patent EP2667887B1, “PHARMACEUTICAL COMPOSITION COMPRISING THE PEPTIDE GLU-ASP-GLY AND USE FOR TREATING HELICOBACTER PYLORI INDUCED GASTRODUODENAL DISEASES” («Garmonia», Ltd., priority 2011, dated 2012)

Columns and labels:
[1] = tested on: human gastric epithelium cells SGC7901; assay: Effect on Helicobacter pylori-induced mitochondrial mechanisms of apoptosis in gastric epitheliocytes (mito-GFP confocal microscopy); type: cell-based; settings: peptide 10 µM 30 minutes before Helicobacter pylori (strain Cag J117), 7 hours
Method: To evaluate the biological activity and effects of peptide H-Glu-Asp-Gly-OH on mitochondrial mechanisms of apoptosis in gastric epitheliocytes, induced by Helicobacter pylori germs, human gastric epithelium cells SGC7901 were studied. The cells were cultivated at 37°C in a damp incubation medium containing 50 mL/L CO2 in DMEM (Dulbecco's Modified Eagle's Medium, ICN Biomedicals) and 10% calf embryonic serum. A preliminary separation of cells for passaging was carried out in the ratio of 1:3-1:5 using a mixture of 0.125% trypsin, 0.02M EDTA (ethylenediaminetetraacetic acid), 0.02% glucose dissolved in a phosphate buffer. The cells were placed on a 24-well plate in the amount of 10^6 cells per well. The cells were passaged in a cultivation medium for 5 days and then taken for study.
On the 5th day after the beginning of cell passaging the peptide H-Glu-Asp-Gly-OH in the dose of 10 µM was administered in the cultivation medium, and in 30 minutes of incubation the cells were taken for study. Klacid antibiotic (clarithromycin, Abbott) in the dose of 500 ng/mL was administered to the cultures in the same conditions as positive control. […]
The status of isolated mitochondria was evaluated using immunofluorescent confocal laser microscopy. […]
Confocal microscopy of mitochondria with optical density evaluation was performed in an inverted confocal microscope Olympus Fluoview CM FV300-IX70 using an apochromatic lens 606 UPlan (Olympus). A 488 nm excitation wave of argon laser was used in each chamber to specify mito-GFP fluorescence that verifies the structure of mitochondria.

[2] = Acute toxicity study, single administration; type: in vivo, white mongrel male mice; settings: mice, single intramuscular administration, 1-5 mg/kg; dose exceeds the therapeutic dose by more than 5000 times
Method: (§1) General toxicity of peptide H-Glu-Asp-Gly-OH was studied in accordance with the requirements of "Manual for Experimental (Pre-Clinical) Study of New Pharmacological Substances" (2000): acute toxicity in case of a single administration of the preparation, as well as subacute and chronic toxicity in case of a long-term administration of the peptide.
Acute toxicity study was carried out on 66 white mongrel male mice with body weight 20-22 g. The animals were randomly subdivided into 6 equal groups. The preparation was administered to the animals once, intramuscularly in the doses of 1, 2, 3, 4, 5 mg/kg in 0,25 ml of sterile 0,9% NaCl solution. Control animals were treated with 0,9% NaCl solution in the same volume.

[3] = Chronic toxicity study, 6 months; type: in vivo, male guinea pigs; settings: guinea pigs
From the text: as §1
Chronic toxicity was studied for 6 months basing on the duration of the recommended clinical administration of the preparation on 92 male guinea pigs with body weight 310-350 g. Experimental animals were treated with the peptide daily, once a day, intramuscularly for 6 months in the doses of 1 µg/kg, 0,1 mg/kg, 1 mg/kg in 0,5 ml of sterile 0,9% NaCl solution. Control animals received sterile 0,9% NaCl solution according to the same scheme and in the same volume. The following indices were identified in the peripheral blood of the animals using traditional methods: quantity of erythrocytes, hemoglobin, reticulocytes, thrombocytes, leukocytes, leukocyte formula, erythrocyte sedimentation rate (ESR), erythrocyte resistance. Further, total protein was identified in the blood serum by the Lowry method, as well as potassium and sodium using plasma spectrophotometry method. […]

For “glutamyl-aspartyl-glycine [H-Glu-Asp-Gly-OH]”, the “mitochondrial GFP expression by optical density” value ([1]; control 2.57±0.23, H. pylori alone 0.35±0.05) was 2.48±0.17 conv. units, the “mitochondrial GFP expression by expression area” value ([1]; control 3.42±0.19, H. pylori alone 0.63±0.03) was 3.84±0.20% and the acute toxicity [2] was “does not cause toxic reactions”. The chronic toxicity ([3]; intramuscularly daily for 6 months, 1 µg/kg, 0,1 mg/kg, 1 mg/kg, doses exceed the therapeutic one by 100-1000 times) was “no side effects” and the “effect on the ESR, erythrocyte resistance and biochemical indices of the blood serum” value ([3]; long-term administration) was “No significant effect”.
